From US12528812B2 (Genentech, Inc., priority 2020, dated 2026)
pIC50, pKi: −log10 of the molar value. Where two headings read alike, the source gives them in different places.

Tests used:
[1] = target: T1, recombinant human JAK1 kinase domain protein (Residues 854-1154) (Homo sapiens, UniProt P23458); experiment: JAK1 biochemical assay (LabChip mobility shift, Ki); settings: read-out: Biochem JAK1 Ki
T1 construct: human JAK1 kinase domain protein (Residues 854-1154); purchased Proteros Biostructures GmbH (Martinsried, Germany); host or cells: insect cells

[2] = tested on: IL-13-stimulated STAT6 phosphorylation in human lung bronchial epithelial BEAS-2B cell line; experiment: P-STAT6 BEAS-2B + IL-13 cell assay; type: cell-based; settings: BEAS2B cells, IL13 stimulation, read-out: Cellular JAK1 PSTAT6 BEAS2B + IL13
Procedure, shortened: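 BEAS-2B cells grown 48 h at 37 °C, pre-treated 1 h with compound (10-point 1:2 dilution curve), then stimulated 15 min with human recombinant IL-13 (250 ng/mL stock). Lysate P-STAT6 (Tyr641) read by MSD sandwich ELISA with total-STAT6 capture; IC50 from four-parameter logistic fit of control-normalised data.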

[3] = target: Recombinant human JAK2 kinase domain protein (Residues 812-1132) (Homo sapiens, UniProt O60674); experiment: JAK2 biochemical assay (LabChip mobility shift, Ki)
Recombinant human JAK2 kinase domain protein (Residues 812-1132), sequence (O60674 812-1132): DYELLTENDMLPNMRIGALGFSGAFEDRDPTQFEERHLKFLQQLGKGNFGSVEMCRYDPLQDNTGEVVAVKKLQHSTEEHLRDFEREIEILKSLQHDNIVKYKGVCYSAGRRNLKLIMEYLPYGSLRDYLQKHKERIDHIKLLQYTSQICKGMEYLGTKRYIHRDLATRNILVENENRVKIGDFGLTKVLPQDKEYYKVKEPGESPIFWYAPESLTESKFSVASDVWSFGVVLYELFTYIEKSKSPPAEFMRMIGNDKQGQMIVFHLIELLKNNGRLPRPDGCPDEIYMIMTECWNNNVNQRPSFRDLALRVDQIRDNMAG

T1 sequence (P23458 854-1154): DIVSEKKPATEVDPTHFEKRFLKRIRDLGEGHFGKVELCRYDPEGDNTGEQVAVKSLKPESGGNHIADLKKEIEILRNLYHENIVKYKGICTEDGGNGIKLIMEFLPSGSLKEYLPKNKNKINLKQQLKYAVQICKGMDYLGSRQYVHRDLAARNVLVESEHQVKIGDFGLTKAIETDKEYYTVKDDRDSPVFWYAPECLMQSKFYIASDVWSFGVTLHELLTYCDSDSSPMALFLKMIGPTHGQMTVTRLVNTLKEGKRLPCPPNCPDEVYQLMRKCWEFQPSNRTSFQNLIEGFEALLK

| SMILES | pKi [1] | pKi ([3]; Biochem JAK2 Ki) | pIC50 ([2]; Homo sapiens, BEAS-2B) | pIC50 [2] | pKi ([3]; read-out: Biochem JAK2 Ki) |
| --- | --- | --- | --- | --- | --- |
| Cn1cc(NC(=O)c2cnn3cccnc23)c(-c2cc(Oc3cnn(C4CNC4)c3)ccc2OC(F)F)n1 [Example 116, N-[3-[5-[l-(azetidin-3-yl)pyrazol-4-yl]oxy-2-(difluoromethoxy)phenyl]-1-methyl-pyrazol-4-yl]pyrazolo[1,5-a]pyrimidine-3-carboxamide] | 8.82 | 9.08 | 7.02 | – | – |
| Cn1cc(NC(=O)c2cnn3cccnc23)c(-c2cc(Oc3cnn(C4CC(O)C4)c3)ccc2OC(F)F)n1 (stereo not drawn) [Example 118, N-[3-[2-(difluoromethoxy)-5-[1-(3-hydroxycyclobutyl)pyrazol-4-yl]oxy-phenyl]-1-methyl-pyrazol-4-yl]pyrazolo[1,5-a]pyrimidine-3-carboxamide] | 9.37 | 9.30 | 7.32 | – | – |
| Cn1cc(NC(=O)c2cnn3cccnc23)c(-c2cc(Oc3cnn(C4CC(O)C4)c3)ccc2OC(F)F)n1 (stereo not drawn) [Example 119, N-[3-[2-(difluoromethoxy)-5-[1-(3-hydroxycyclobutyl)pyrazol-4-yl]oxy-phenyl]-1-methyl-pyrazol-4-yl]pyrazolo[1,5-a]pyrimidine-3-carboxamide] | 9.05 | 9.28 | – | 7.39 | – |
| Cn1cc(NC(=O)c2cnn3cccnc23)c(-c2cc(Oc3cnn(CC4(O)CNC4)c3)ccc2OC(F)F)n1 [Example 122, N-[3-[2-(difluoromethoxy)-5-[1-[(3-hydroxyazetidin-3-yl)methyl]pyrazol-4-yl]oxy-phenyl]-1-methyl-pyrazol-4-yl]pyrazolo[1,5-a]pyrimidine-3-carboxamide] | 9.28 | 9.25 | 6.41 | – | – |
| Cn1cc(NC(=O)c2cnn3cccnc23)c(-c2cc(Oc3cnn(CC4CNC4)c3)ccc2OC(F)F)n1 [Example 123, N-[3-[5-[1-(azetidin-3-ylmethyl)pyrazol-4-yl]oxy-2-(difluoromethoxy)phenyl]-1-methyl-pyrazol-4-yl]pyrazolo[1,5-a]pyrimidine-3-carboxamide] | 9.21 | 9.13 | 6.43 | – | – |
| Cn1cc(NC(=O)c2cnn3cccnc23)c(-c2cc(Oc3cnn(CC(C)(C)O)c3)ccc2OC(F)F)n1 [Example 124, N-[3-[2-(difluoromethoxy)-5-[1-(2-hydroxy-2-methyl-propyl)pyrazol-4-yl]oxy-phenyl]-1-methyl-pyrazol-4-yl]pyrazolo[1,5-a]pyrimidine-3-carboxamide] | 9.41 | 9.68 | 7.54 | – | – |
| Cn1cc(NC(=O)c2cnn3cccnc23)c(-c2cc(Oc3cnn(CC4COC4)c3)ccc2OC(F)F)n1 [Example 125, N-[3-[2-(difluoromethoxy)-5-[1-(oxetan-3-ylmethyl)pyrazol-4-yl]oxy-phenyl]-1-methyl-pyrazol-4-yl]pyrazolo[1,5-a]pyrimidine-3-carboxamide] | 9.09 | 9.42 | 7.06 | – | – |
| Cn1cc(NC(=O)c2cnn3cccnc23)c(-c2cc(Oc3cnn(CCN)c3)ccc2OC(F)F)n1 [Example 126, N-[3-[5-[1-(2-aminoethyl)pyrazol-4-yl]oxy-2-(difluoromethoxy)phenyl]-1-methyl-pyrazol-4-yl]pyrazolo[1,5-a]pyrimidine-3-carboxamide] | 8.96 | 9.04 | 7.17 | – | – |
| CN(C)C(=O)c1ccc(Oc2ccc(OC(F)F)c(-c3n[nH]cc3NC(=O)c3cnn4cccnc34)c2)cc1 [Example 130, N-[3-[2-(difluoromethoxy)-5-[4-(dimethylcarbamoyl)phenoxy]phenyl]-1-1H-pyrazol-4-yl]pyrazolo[1,5-a]pyrimidine-3-carboxamide] | 9.34 | 9.64 | 7.62 | – | – |
| Cn1cc(NC(=O)c2cnn3cccnc23)c(-c2cc(Oc3cnn(C4CCC4O)c3)ccc2OC(F)F)n1 (stereo not drawn) [Example 134, N-[3-[2-(difluoromethoxy)-5-[1-(2-hydroxycyclobutyl)pyrazol-4-yl]oxy-phenyl]-1-methyl-pyrazol-4-yl]pyrazolo[1,5-a]pyrimidine-3-carboxamide] | 9.38 | 9.59 | 7.80 | – | – |
| Cn1cc(NC(=O)c2cnn3cccnc23)c(-c2cc(Oc3cnn(C4CCC4O)c3)ccc2OC(F)F)n1 (stereo not drawn) [Example 135, N-[3-[2-(difluoromethoxy)-5-[1-(2-hydroxycyc1obutyl)pyrazol-4-yl]oxy-phenyl]-1-methyl-pyrazol-4-yl]pyrazolo[1,5-a]pyrimidine-3-carboxamide] | 9.60 | 9.80 | – | 7.82 | – |
| O=C(Nc1c[nH]nc1-c1cc(Oc2cccc(C3(O)CNC3)c2)ccc1OC(F)F)c1cnn2cccnc12 [Example 137, N-[3-[2-(difluoromethoxy)-5-[3-(3-hydroxyazetidin-3-yl)phenoxy]phenyl]-1H-pyrazol-4-yl]pyrazolo[1,5-a]pyrimidine-3-carboxamide;2,2,2-trifluoroacetic acid] | 9.09 | – | – | 6.00 | 9.29 |
| CN1CC(O)(c2cccc(Oc3ccc(OC(F)F)c(-c4n[nH]cc4NC(=O)c4cnn5cccnc45)c3)c2)C1 [Example 138, N-[3-[2-(difluoromethoxy)-5-[3-(3-hydroxy-l-methyl-azetidin-3-yl)phenoxy]phenyl]-1H-pyrazol-4-yl]pyrazolo[1,5-a]pyrimidine-3-carboxamide] | 9.26 | – | – | 6.82 | 9.40 |

Second part, led by results:

| pKi [1] | pKi ([3]; Biochem JAK2 Ki) | SMILES | pIC50 ([2]; Homo sapiens, BEAS-2B) | pIC50 [2] | pKi ([3]; read-out: Biochem JAK2 Ki) |
| --- | --- | --- | --- | --- | --- |
| 8.52 | 8.80 | CN1CC(n2cc(Oc3ccc(OC(F)F)c(-c4nn(C)cc4NC(=O)c4cnn5cccnc45)c3)cn2)C1 [Example 115, N-[3-[2-(difluoromethoxy)-5-[1-(1-methylazetidin-3-yl)pyrazol-4-yl]oxy-phenyl]-1-methyl-pyrazol-4-yl]pyrazolo[1,5-a]pyrimidine-3-carboxamide] | 7.32 | – | – |
| 8.82 | 9.18 | CN1CC(CC#N)(n2cc(Oc3ccc(OC(F)F)c(-c4nn(C)cc4NC(=O)c4cnn5cccnc45)c3)cn2)C1 [Example 117, N-[3-[5-[1-[3-(cyanomethyl)-1-methyl-azetidin-3-yl]pyrazol-4-yl]oxy-2-(difluoromethoxy)phenyl]-1-methyl-pyrazol-4-yl]pyrazolo[1,5-a]pyrimidine-3-carboxamide] | 7.08 | – | – |
| 8.80 | 8.82 | CN1CC(Cn2cc(Oc3ccc(OC(F)F)c(-c4nn(C)cc4NC(=O)c4cnn5cccnc45)c3)cn2)C1 [Example 127, N-[3-[2-(difluoromethoxy)-5-[1-[(1-methylazetidin-3-yl)methyl]pyrazol-4-yl]oxy-phenyl]-1-methyl-pyrazol-4-yl]pyrazolo[1,5-a]pyrimidine-3-carboxamide] | 7.34 | – | – |
| 9.57 | 9.82 | CN(C)C(=O)Cc1ccc(Oc2ccc(OC(F)F)c(-c3nn(C)cc3NC(=O)c3cnn4cccnc34)c2)cc1 [Example 129, N-[3-[2-(difluoromethoxy)-5-[4-[2-(dimethylamino)-2-oxo-ethyl]phenoxy]phenyl]-1-methyl-pyrazol-4-yl]pyrazolo[1,5-a]pyrimidine-3-carboxamide] | 7.85 | – | – |
| 9.39 | 9.62 | CNC(=O)c1ccc(Oc2ccc(OC(F)F)c(-c3nn(C)cc3NC(=O)c3cnn4cccnc34)c2)cc1 [Example 131, N-[3-[2-(difluoromethoxy)-5-[4-(methylcarbamoyl)phenoxy]phenyl]-1-methyl-pyrazol-4-yl]pyrazolo[1,5-a]pyrimidine-3-carboxamide] | 7.64 | – | – |
| 9.30 | 9.64 | Cn1cc(NC(=O)c2cnn3cccnc23)c(-c2cc(Oc3ccc(C(N)=O)cc3)ccc2OC(F)F)n1 [Example 136, N-[3-[5-(4-carbamoylphenoxy)-2-(difluoromethoxy)phenyl]-1-methyl-pyrazol-4-yl]pyrazolo[1,5-a]pyrimidine-3-carboxamide] | 7.34 | – | – |
| 9.19 | 9.41 | CN(C)C(=O)c1ccc(Oc2ccc(OC(F)F)c(-c3nn(C4COC4)cc3NC(=O)c3cnn4cccnc34)c2)cc1 [Example 142, 3-[2-(difluoromethoxy)-5-[4-(dimethylcarbamoyl)phenoxy]phenyl 1-1-(oxetan-3-yl)pyrazol-4-yl]pyrazolo[1,5-a]pyrimidine-3-carboxamide] | 7.66 | – | – |
| 8.26 | 8.51 | CN1CC(CC#N)(c2ccc(Oc3ccc(OC(F)F)c(-c4nn(C)cc4NC(=O)c4cnn5cccnc45)c3)cc2)C1 [Example 145, N-[3-[5-[4-[3-(cyanomethyl)-1-methyl-azetidin-3-yl]phenoxy]-2-(difluoromethoxy)phenyl]-1-methyl-pyrazol-4-yl]pyrazolo[1,5-a]pyrimidine-3-carboxamide] | 6.80 | – | – |
| 9.21 | 9.54 | CN1CCN(C(=O)Cc2ccc(Oc3ccc(OC(F)F)c(-c4nn(C)cc4NC(=O)c4cnn5cccnc45)c3)cc2)CC1 [Example 146, N-[3-[2-(difluoromethoxy)-5-[4-[2-(4-methylpiperazin-1-yl)-2-oxo-ethyl]phenoxy]phenyl]-1-methyl-pyrazol-4-yl]pyrazolo[1,5-a]pyrimidine-3-carboxamide] | 7.40 | – | – |
| 9.55 | 9.66 | Cn1cc(NC(=O)c2cnn3cccnc23)c(-c2cc(Oc3ccc(C4(CC#N)COC4)cc3)ccc2OC(F)F)n1 [Example 147] | 7.72 | – | – |
